Measurements as given in patent publication US20230183239A1, “ECTONUCLEOTIDE PYROPHOSPHATASE-PHOSPHODIESTERASE 1 (ENPP-1) INHIBITORS AND USES THEREOF” (AbbVie Inc., priority 2017, published 2023).

Tests used:
[1] = system: IFNβ gene transcription; format: cell-based, human; conditions: 3, 6, and 19 hrs exposure; VACV-70 stimulated PBMCs
[2] = target: T1, ENPP1 (Homo sapiens, UniProt P22413); experiment: ENPP1 enzyme assay with AMP-pNP substrate (hydrolysis of ATP analog); format: biochemical
T1 sequence (P22413 1-925): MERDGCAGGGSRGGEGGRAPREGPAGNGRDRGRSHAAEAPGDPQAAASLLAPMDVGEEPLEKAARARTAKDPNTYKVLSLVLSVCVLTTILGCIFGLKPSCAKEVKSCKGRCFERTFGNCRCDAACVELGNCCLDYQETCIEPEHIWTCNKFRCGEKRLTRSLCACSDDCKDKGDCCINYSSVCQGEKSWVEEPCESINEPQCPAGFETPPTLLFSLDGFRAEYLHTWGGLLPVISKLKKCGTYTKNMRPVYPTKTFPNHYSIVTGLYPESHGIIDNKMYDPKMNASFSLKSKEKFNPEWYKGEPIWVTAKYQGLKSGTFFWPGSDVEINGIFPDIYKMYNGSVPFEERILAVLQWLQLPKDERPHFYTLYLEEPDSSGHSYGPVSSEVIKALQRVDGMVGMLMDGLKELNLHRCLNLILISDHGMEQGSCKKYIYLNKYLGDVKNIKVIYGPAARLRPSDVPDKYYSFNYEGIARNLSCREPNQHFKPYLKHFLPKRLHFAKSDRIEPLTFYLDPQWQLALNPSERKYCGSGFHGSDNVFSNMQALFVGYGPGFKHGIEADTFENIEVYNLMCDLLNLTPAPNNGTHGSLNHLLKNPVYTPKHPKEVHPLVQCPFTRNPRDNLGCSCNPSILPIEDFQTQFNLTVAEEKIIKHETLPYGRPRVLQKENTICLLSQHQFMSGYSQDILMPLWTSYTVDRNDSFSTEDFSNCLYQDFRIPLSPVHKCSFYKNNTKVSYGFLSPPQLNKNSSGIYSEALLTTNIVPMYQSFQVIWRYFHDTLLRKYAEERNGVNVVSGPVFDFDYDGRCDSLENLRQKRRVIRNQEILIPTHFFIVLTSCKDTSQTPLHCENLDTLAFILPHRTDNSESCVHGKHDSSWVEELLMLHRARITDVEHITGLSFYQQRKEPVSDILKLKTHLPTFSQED
Summary of the method: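 Reactions ran 20 min at 37 °C, pH 8.5 Tris buffer with NaCl, CaCl2, ZnCl2, using 300 µM AMP-pNP and 60 ng/well recombinant human ENPP1; inhibitor range 10 µM–30 pM, duplicates.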

[3] = system: IFN β gene transcription; experiment: IFNβ mRNA in cGAMP-stimulated human foreskin fibroblasts (HFF-1); format: cell-based; conditions: cGAMP-stimulated human foreskin fibroblast cells (HFF-1)
Protocol: Human Foreskin Fibroblasts
The cell line was sourced from ATCC (Cat# SCRC-1041). Cells were cultured in 15% fetal bovine serum-containing growth medium. They were seeded in a 48 well plate @ 100,000 per well (300 µL), and incubated for 1 hour at 37° C., 5% CO2. 100 µl of compound (0.05 µM to 5 µM final concentrations) was added 30 min prior to addition of cGAMP (12.5 µM & 25 µM final concentrations). The plate was incubated for 3 hrs at 37° C., 5% CO2. Cells were washed with PBS and 250 µl of RLT reagent (provided in the RNA isolation kit (RNeasy Mini kit, Qiagen Cat # 74106). was added to each well. RNA was isolated using this kit as per the given protocol. RNA was converted to cDNA using a Bio-Rad cDNA conversion kit (iScript® cDNA synthesis kit, Bio-Rad Cat #170-8891). IFN βgene transcription was quantitated using SYBR green dye in an RT-PCR instrument. The methods and protocol were the same as for PBMCs, except that Interferon mRNA levels were normalized to GAPDH mRNA.

[4] = target: T1, ENPP1; experiment: Indirect quantitation of 2',3'-cGAMP hydrolysis (AMP-Glo Assay kit); format: biochemical
[5] = target: T1, ENPP1; experiment: Substrate selectivity ratio, inhibition of cGAMP hydrolysis versus ATP hydrolysis; format: biochemical; conditions: ratio Ki AMP-pNP / Ki cGAMP
Protocol: The selectivity ratios for inhibition of cGAMP hydrolysis versus ATP hydrolysis were then calculated as follows: […]

[6] = target: T1, ENPP1; experiment: ENPP1 enzyme assay with cGAMP substrate (AMP-Glo); format: biochemical; parameters: purchased R&D Systems; conditions: 1 µM compound; cGAMP substrate; read-out: cGAMP: % Inhibition at 1 µM
Description: Example B1: ENPP1 Enzyme Assay With cGAMP Substrate
Ectonucleotide pyrophosphatase/phosphodiesterase 1 (ENPP-1) is a transmembrane glycoprotein that hydrolyzes nucleotides and nucleotide derivatives with the formation of nucleoside-5’-monophosphates. […] The 5’-AMP formed from the reaction is detected using the AMP-Glo® Kit (Promega). The assay kit contains two reagents. The first reagent terminates the enzymatic reaction, removes ATP (using adenylyl cyclase), and converts 5’-AMP produced into ADP (using polyphosphate: AMP phosphotransferase). The second reagent converts ADP to ATP (using adenylate kinase) and generates light from ATP using the luciferin/luciferase reaction.
Different concentrations of ENPP1 inhibitors are pre-incubated with 5 ng/well of human ENPP-1 enzyme (R&D Systems) for 15 minutes at 37° C. The reaction is initiated by adding 20 µM 2’3’-cGAMP and incubating for 30 minutes at 37° C. The final assay reaction mixture contains a buffer of 50 mM Tris pH 8.0, 250 mM NaCl, 0.5 mM CaCl2, 1 µM ZnCl2 and 1% DMSO. At the end of the incubation, the reaction is stopped by adding 12 µl of AMP-Glo reagent-1 and mixing the reaction uniformly for 5 minutes, followed by incubation at room temperature for one hour. Then 25 µl of AMP Glo reagent-2 is added to the reaction, mixed uniformly with a pipette, and incubated at room temperature for one hour to convert the ADP formed from reagent-1 to ATP and light. The generated light is measured in a Perkin Elmer Victor® instrument.
The IC50 values for percent inhibition versus compound concentration are determined by fitting the inhibition curves using a four-parameter variable slope model in GraphPad Prism® software. Ki values are derived from the IC50 values using the Cheng-Prusoff equation: […]

[7] = AMP-pNP substrate (ATP analog), Ki from IC50 by Cheng-Prusoff, read-out: ENPP1 Inhibition _AMP-pNP: Ki
[8] = cGAMP substrate, Ki from IC50 by Cheng-Prusoff, read-out: ENPP1 Inhibition -cGAMP: Ki

SMILES	transcription of IFNβ [1]	Ki [2, 7] [nM]	transcription of IFNβ [3]	Ki [4, 8] [nM]	Substrate Selectivity: Ki_AMP-pNP/Ki_cGAMP [5]	inhibition at 1 µM [6] [%]	Ki [2] [nM]	Ki [4] [nM]
COc1ccc2c(Oc3ccc(S(N)(=O)=O)cc3)ccnc2c1 [Example 58, 4-((7-methoxyquinolin-4-yl)oxy)benzenesulfonamide]	enhances transcription of IFNβ	–	–	–	–	–	–	–
COc1cc2ncnc(-c3ccc4c(c3)CN(S(N)(=O)=O)CC4)c2cc1OC [Example 32, 7-(6,7-dimethoxyquinazolin-4-yl)-3,4-dihydroisoquinoline-2(1H)-sulfonamide]	–	< 100	enhances transcription of IFNβ	< 100	24.3	> 75	–	–
COc1ccc2c(-c3ccc(CNS(N)(=O)=O)cc3)ccnc2c1 [Example 55, N-(4-(7-methoxyquinolin-4-yl)benzyl)sulfamide]	–	–	enhances transcription of IFNβ	–	–	–	–	–
COc1cc2ncc(C#N)c(N3CCC4(CC3)CCN(S(N)(=O)=O)C4)c2cc1F [Example 57, 8-(3-cyano-6-fluoro-7-methoxyquinolin-4-yl)-2,8-diazaspiro[4.5]decane-2-sulfonamide]	–	< 100	enhances .transcription of IFNβ	< 100	24.7	–	–	–
COc1ccc2c(Oc3ccc(NS(N)(=O)=O)cc3)ccnc2c1 [Example 54, N-(4-((7-methoxyquinolin-4-yl)oxy)phenyl)sulfamide]	enhances transcription of IFNβ	–	–	–	–	–	100 to 1000	< 100
